System: SH-SY5Y nerve cells
Experiment: Neuroprotection in SH-SY5Y cell damage model induced by L-glutamic acid (MTT)
Type: cell-based
Conditions: L-glutamic acid 160 mM, 24 h, effective rate %
Method: SH-SY5Y nerve cells were cultured in DMEM medium (containing 5% fetal calf serum by volume fraction) which were placed in an incubator containing 5% CO2 under 37° C. They were subcultured once every 3-4 days. Cells in logarithmic phase were used for test
SH-SY5Y cells were inoculated in a 96-well plate at a concentration of 5×10^3 and continued to culture for 24 h. […] 3 parallel wells were arranged for each concentration. They were continued to culture for 24 h. 24 h later, the supernatant was pipetted out and discarded. 100 μL MTT (0.5 mg/mL) was added into each well. They were further incubated for 4 h. Then the supernatant was pipetted out and discarded. 150 μL DMSO was added into each well. They were vibrated for 10 min. A wavelength of 570 nm was selected. The absorbance value was measured on a microplate reader^[13]. (effective rate %=(ODdrug−ODmodel)/(ODcontrol−ODmodel)*100).

Compound	Neuroprotective effective rate (recovery of viability relative to glutamate model) (drug 10^−5 moL/L) [%]	Neuroprotective effective rate (recovery of viability relative to glutamate model) (drug 10^−6 moL/L) [%]	Neuroprotective effective rate (recovery of viability relative to glutamate model) (drug 10^−7 moL/L) [%]
CC(/C=C/C=C(\C)C(=O)O[C@@H]1OC(CO)[C@@H](O)C(O)C1O)=C\C=C\C=C(C)\C=C\C=C(/C)C(=O)O[C@@H]1OC(CO)[C@@H](O)C(O)C1O (stereo partly drawn) [Compound 3, crocetin di-β-D-glucopyranoside]	0.00 ± 0.00	0.00 ± 0.00	0.00 ± 0.00
CC(/C=C/C=C(\C)C(=O)O)=C\C=C\C=C(C)\C=C\C=C(/C)C(=O)O[C@@H]1OC(CO)[C@@H](O)C(O)C1O (stereo partly drawn) [Compound 9, crocetin mono-β-D-glucopyranoside]	0.00 ± 0.00	0.00 ± 0.00	0.00 ± 0.00
CC(/C=C/C=C(\C)C(=O)O[C@@H]1O[C@H](CO[C@@H]2O[C@H](CO)[C@@H](O)[C@H](O)[C@H]2O)[C@@H](O)[C@H](O)[C@H]1O)=C\C=C\C=C(C)\C=C\C=C(/C)C(=O)O[C@@H]1[C@H](O)C[C@@](O)(C(=O)O)C[C@H]1OC(=O)/C=C/c1ccc(O)c(O)c1 [Compound 5, neocrocin B]	40.03 ± 3.91	27.63 ± 5.36	9.89 ± 2.93
CC(/C=C/C=C(\C)C(=O)O[C@@H]1OC(CO)[C@@H](O)C(O)C1O)=C\C=C\C=C(C)\C=C\C=C(/C)C(=O)O[C@@H]1OC(CO[C@@H]2OC(CO)[C@@H](O)C(O)C2O)[C@@H](O)C(O)C1O (stereo partly drawn) [Compound 2, crocetin-β-D-glucopyranosyl-β-D-gentiobioside]	0.00 ± 0.00	0.00 ± 0.00	0.00 ± 0.00

From patent US10851129B2, “Composition, crocins active site, and uses thereof” (Jinan University, priority 2016, dated 2020)
